Data reported in patent US6914045B2, “Glycopeptide antibiotics” (Wyeth Holdings Corporation, priority 2001, dated 2005).
In brackets after ≈: the same amount, converted by molar mass. Numbered stars: 1 amine (or outer) side, 2 acyl side, 3 side chain; on linkers, the order of the positions; unused ones are H or OH. Square brackets hold non-standard residues; d marks the D form. Peptide text beside a SMILES is read from it. ξ: configuration not given here. X1 = N=C1NCC(C(O)C(N[*:1])C(=O)[*:2])N1C1OC(CO)C(O)C(O)C1O; ξEnduracididine(βξ-OH,4'ξ) = N=C1NCC(C(O)C(N)C(=O)O)N1; Cha = N[CH](CC1CCCCC1)C(=O)O

Legend:
[1] = test system: Escherichia coli; assay: in vitro antibacterial evaluation, MIC by broth dilution; format: cell-based; conditions: broth dilution, 18 hours at 35° C.
Procedure, shortened: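 MIC is the lowest antibiotic concentration (tested 64-0.06 μg/mL) preventing growth of a 5×10^5 CFU/mL inoculum. Determined by broth dilution in Mueller-Hinton II medium following NCCLS standard M7-A2.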

[2] = test system: Enterococcus sp.; assay: as above; format: cell-based; conditions: broth dilution, 18 hours at 35° C.
Procedure, shortened: (§1)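 MIC, the lowest antibiotic concentration preventing growth, was read across 64-0.06 μg/mL with 5×10^5 CFU/mL inoculum. Method followed NCCLS M7-A2 broth dilution using Mueller-Hinton II; Gram-positive strains covered recent methicillin-, penicillin- and/or vancomycin-resistant clinical isolates.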

[3] = test system: Streptococcus sp.; assay: as above; format: cell-based; conditions: broth dilution, 18 hours at 35° C.
Procedure, shortened: as §1

[4] = test system: Staphylococcus sp.; assay: as above; format: cell-based; conditions: broth dilution, 18 hours at 35° C.
Procedure, shortened: as §1

[5] = anatomic pathology (histopathology of heart and kidney) in mice; format: in vivo; conditions: CD-1 mice, 20 mg/kg intravenously daily for 9 days, necropsy day 10, microscopic histopathology
Procedure: Samples of tissues from necropsied mice were formalin-fixed, paraffin-embedded, sectioned, stained with hematoxylin and eosin, and examined microscopically. Histopathologic findings were recorded. These findings were subjectively graded on a scale corresponding to slight, mild, moderate, marked and severe as compared to untreated controls.

[6] = clinical pathology (serum clinical chemistry) in mice; format: in vivo; conditions: CD-1 mice, 20 mg/kg intravenously daily for 9 days, sera day 10
Procedure: 20-day-old CD-1 mice were divided into a vehicle control group (5 mice) and a treatment group (5 mice). Samples of glycopeptide antibiotics were administered at 20 mg/kg intravenously daily for 9 days.

With `N=C1NCC(C(O)C2NC(=O)C(CC3CCCCC3)NC(=O)C(CC3CCCCC3)NC(=O)CNC(=O)C(CO)NC(=O)C(C(O)C3CNC(=N)N3C3OC(CO)C(O)C(O)C3O)NC2=O)N1` (stereo not drawn) [Example 52, Cyclo[3-cyclohexylalanyl-3-cyclohexylalanyl-3-(2-iminoimidazolidin-4-yl)seryl-3-(3-hexopyranosyl-2-iminoimidazolidin-4-yl)serylserylglycyl]] (cyclo(G[Cha][Cha][ξEnduracididine(βξ-OH,4'ξ)][X1]S); configuration not given here) as the molecule, how does the “MIC Escherichia coli (ATCC 25922)” value ([1]; strain ATCC 25922) read?
The value was 64 µg/mL (≈ 67.2 µM).

And the “MIC Escherichia coli (GC 4559)” value ([1]; strain GC 4559)?
The value was 64 µg/mL (≈ 67.2 µM).

And the “MIC Escherichia coli (GC 4560)” value ([1]; strain GC 4560)?
The value was 16 µg/mL (≈ 16.8 µM).

What about the “MIC Enterococcus faecalis (ATCC 29212)” value ([2]; strain ATCC 29212) of the same molecule?
Its value is 64 µg/mL (≈ 67.2 µM).

And the “MIC Enterococcus faecalis (GC 2242)” value ([2]; strain GC 2242)?
The value was 32 µg/mL (≈ 33.6 µM).

What about the “MIC Enterococcus faecium (GC 2243)” value ([2]; strain GC 2243) of the same molecule?
Its value is 16 µg/mL (≈ 16.8 µM).

And the “MIC Enterococcus faecalis (GC 2691)” value ([2]; strain GC 2691)?
The value was 32 µg/mL (≈ 33.6 µM).

What about the “MIC Enterococcus faecalis (GC 3059)” value ([2]; strain GC 3059) of the same molecule?
Its value is 32 µg/mL (≈ 33.6 µM).

And the “MIC Enterococcus faecalis (GC 4552)” value ([2]; strain GC 4552)?
Its value is 32 µg/mL (≈ 33.6 µM).

What about the “MIC Enterococcus faecalis (GC 4553)” value ([2]; strain GC 4553) of the same molecule?
Its value is 16 µg/mL (≈ 16.8 µM).

What about the “MIC Enterococcus faecalis (GC 4554)” value ([2]; strain GC 4554) of the same molecule?
Its value is 64 µg/mL (≈ 67.2 µM).

What about the “MIC Enterococcus faecium (GC 4556)” value ([2]; strain GC 4556) of the same molecule?
Its value is 32 µg/mL (≈ 33.6 µM).

What about the “MIC Enterococcus faecium (GC 4557)” value ([2]; strain GC 4557) of the same molecule?
The value was 8 µg/mL (≈ 8.39 µM).

And the “MIC Enterococcus avium (GC 4558)” value ([2]; strain GC 4558)?
Its value is 32 µg/mL (≈ 33.6 µM).

And the “MIC Enterococcus faecalis (GC 6189)” value ([2]; strain GC 6189)?
Its value is 32 µg/mL (≈ 33.6 µM).

What about the “MIC Streptococcus pneumoniae (ATCC 6301)” value ([3]; strain ATCC 6301) of the same molecule?
The value was 8 µg/mL (≈ 8.39 µM).

What about the “MIC Streptococcus pneumoniae (GC 1894)” value ([3]; strain GC 1894) of the same molecule?
The value was 8 µg/mL (≈ 8.39 µM).

And the “MIC Streptococcus pyogenes (GC 4563)” value ([3]; strain GC 4563)?
The value was 8 µg/mL (≈ 8.39 µM).

What about the “MIC Streptococcus agalactiae (GC 4564)” value ([3]; strain GC 4564) of the same molecule?
Its value is 8 µg/mL (≈ 8.39 µM).

And the “MIC Streptococcus pneumoniae (GC 4565)” value ([3]; strain GC 4565)?
The value was 16 µg/mL (≈ 16.8 µM).

What about the “MIC Staphylococcus aureus (ATCC 29213)” value ([4]; strain ATCC 29213) of the same molecule?
The value was 16 µg/mL (≈ 16.8 µM).

What about the “MIC Staphylococcus aureus (GC 1131)” value ([4]; strain GC 1131) of the same molecule?
The value was 16 µg/mL (≈ 16.8 µM).

What about the “MIC Staphylococcus aureus (GC 3051)” value ([4]; strain GC 3051) of the same molecule?
Its value is 16 µg/mL (≈ 16.8 µM).

And the “MIC Staphylococcus aureus (GC 3053)” value ([4]; strain GC 3053)?
Its value is 32 µg/mL (≈ 33.6 µM).

What about the “MIC Staphylococcus aureus (GC 4541)” value ([4]; strain GC 4541) of the same molecule?
Its value is 16 µg/mL (≈ 16.8 µM).

What about the “MIC Staphylococcus aureus (GC 4542)” value ([4]; strain GC 4542) of the same molecule?
Its value is 8 µg/mL (≈ 8.39 µM).

What about the “MIC Staphylococcus aureus-SMITH (GC 4543)” value ([4]; strain GC 4543) of the same molecule?
Its value is 16 µg/mL (≈ 16.8 µM).

What about the “MIC Staphylococcus aureus (GC 4544)” value ([4]; strain GC 4544) of the same molecule?
The value was 16 µg/mL (≈ 16.8 µM).

And the “MIC Staphylococcus aureus (GC 4545)” value ([4]; strain GC 4545)?
Its value is 8 µg/mL (≈ 8.39 µM).

What about the “MIC Staphylococcus haemolyticus (GC 4546)” value ([4]; strain GC 4546) of the same molecule?
Its value is 4 µg/mL (≈ 4.2 µM).

What about the “MIC Coagulase Negative Staphylococcus (GC 4547)” value ([4]; strain GC 4547) of the same molecule?
Its value is 8 µg/mL (≈ 8.39 µM).

What about the “MIC Coagulase Negative Staphylococcus (GC 4548)” value ([4]; strain GC 4548) of the same molecule?
The value was 8 µg/mL (≈ 8.39 µM).

What about the “MIC Coagulase Negative Staphylococcus (GC 4549)” value ([4]; strain GC 4549) of the same molecule?
The value was 4 µg/mL (≈ 4.2 µM).

And the “MIC Coagulase Negative Staphylococcus (GC 4551)” value ([4]; strain GC 4551)?
Its value is 8 µg/mL (≈ 8.39 µM).

And the “Anatomical Pathology (Day 10), Heart” value [5]?
Its value is 0.

And the “Anatomical Pathology (Day 10), Kidney” value [5]?
The value was “+++”.

And the “Clinical Chemistry (Day 10) % of Control, BUN” value [6]?
The value was 211%.
